Measured values as given in patent publication US6642003B2, “Human glucose-dependent insulin-secreting cell line” (Cedars-Sinai Medical Center, priority 2001, dated 2003).

Experiments:
PANC-1 cells [1] = test: RT-PCR of islet β-cell specific transcripts, parental PANC-1 cells; format: cell-based, human; conditions: GLP-1 10 nM for 96 h
Experimental: After the treatment of ARIP and PANC-1 cells with GLP-1, Exendin-9, or vehicle, for the described length of time and the various doses, the culture medium was removed and the cells were washed (twice) with serum-free medium. Total RNA was isolated using the TRiazol-method (Gibco-BRL), and treated with DNase (Amplification Grade, GibcoBRL) in 20 mmol/l Tris-HCL (pH 8.4), 2 mmol/l MgCl2, and 50 mmol/l KCl to remove any traces of contaminating genomic DNA. RNA (2.5 μg) was then subjected to reverse transcription (RT reagents; Promega; Madison, Wis.). RT-PCR was undertaken in a volume of 50 μl of buffer containing 50 mmol/l KCl, 10 mmol/l Tris-HCl, 3.5 mmol/l MgCl2, 200 μmol/l each dNTPs, and 0.4 μmol/l each of sense and antisense primers to rat or human insulin (depending on the specific cell from which the RNA was extracted). Amplification was performed for 30 cycles at the denaturing temperature of 94° C. for 1 min, annealing temperature of 60° C. for 45 sec, and an extension temperature of 72° C. for 1 min. […] These included more irregular and variable cell shapes, with a cytoplasm less homogenous and “rougher” in appearance than control culture.
Treatment with GLP-1 induces the differentiation of ductal epithelial cells into insulin-producing cells. FIG. 2 illustrates a series of cell cultures grown with or without GLP-1 (10 nM) for 72 h. […]

PANC-1 cells [2] = test: Flow cytometric (FACS) analysis for insulin, parental PANC-1 cells; format: cell-based, human; conditions: presence or absence of GLP-1; equivalent to assay background
Experimental: (§1) For fluorescence-activated cells sorting (FACS) analysis, cells were cultured in the presence of GLP-1 (10 nM), or vehicle, for 72 h, then washed with cold PBS (pH 7.4; three times) and incubated overnight, on ice, in PBS with 2% paraformaldehyde. After centrifugation, the cell pellet was resuspended in 400 μl of cold 0.1% Triton diluted in FACS buffer (PBS with 2% FCS). After several centrifugation and washes, the cells were resuspended in the assay buffer with of 10 μl of fluorescent-conjugated insulin antibody (Cat N. FM205, FITC: Chromaprobe, Inc; Mountain View, Calif.), in the presence of 10 μl of blocking antibody (anti-mouse IgG; Organon Teknika-Cappel, West Chester, Pa.). Control samples were treated with PBS, without the primary antibody, and then incubated with an isotope-matched FITC-conjugated control antibody (murine IgG; Chromaprobe Inc., Mountain View, Calif.). Flow cytometric analysis was performed with a FACScan[R] cytometer, using the LYSYS II program, and by fluorescence microscopy, as is well known in the art. See, e.g., E. Elstner, M. Linker-Israeli, J. Le, T. Umiel, P. Michl, J. W. Said, L. Binderup, J. C. […]

PANC-1/IDX-1 cells = test: Flow cytometric (FACS) analysis for insulin, PANC-1/IDX-1 cells; format: cell-based, human; conditions: GLP-1 10 nM, 72 h
Experimental: PANC-1 cells were transfected with a pcDNA3 construct (Invitrogen; Carlsbad, Calif.) harboring the wild-type full-length IDX-1 cDNA using LipoTAXI (Catalog N. 204110; Mammalian Transfection Kit, Stratagene; La Jolla, Calif.). Control cells were transfected with the vector alone. The selection of positive (i.e. transfected) cells was carried out by culturing the cells in the presence of 400 μg/ml of G418 sulfate (GN-04, Omega; Tarzana, Calif.).
as §1, with “Control samples were treated with PBS, without the primary antibody, and then incubated with an isotope-matched FITC-conjugated control antibody (murine IgG; Chromaprobe Inc., Mountain View, Calif.).” left out, “art.” for “art. See, e.g., E. Elstner, M. Linker-Israeli, J. Le, T. Umiel, P. Michl, J. W. Said, L. Binderup, J. C.”

ARIP cells = test: Immunocytochemistry for insulin, ARIP cells; format: cell-based, rat; conditions: GLP-1 10 nM, 72 h
Experimental: Cells were cultured on monocoated chamber slides (Nalge Nunc International; Naperville, Ill.) in the presence of GLP-1 (10 nM), or vehicle, for 72 h.
For the detection of insulin, cells were washed and fixed with 3% paraformaldehyde for 4 h, at room temperature in PBS, solubilized with 0.1% (vol/vol) Triton X-100 in PBS for 5 min. Cells were then incubated sequentially with an anti-insulin antibody and a secondary antibody, as described by the manufacturer (Biomeda Corp.; Foster City, Calif.). The cells were examined using a Ziess Axiophoto microscope (New York, N.Y.).

PANC-1 cells [3] = test: Morphological changes (hematoxylin and eosin), parental PANC-1 cells; format: cell-based, human; conditions: GLP-1 10 nM for 72 h
From the text: Hematoxylin and eosin staining was employed, in some experiments, to show the morphological changes observed under the experimental conditions described below.

glucagon-like peptide-1 [GLP-1]
RT-PCR for insulin (PANC-1 cells [1]): consistently negative | cells containing insulin in the cytoplasm (PANC-1 cells [2]): 1.4% | cultured cells converted from insulin negative to insulin positive (PANC-1/IDX-1 cells): 61.7% | insulin immunostaining (ARIP cells): positive immunoreactivity for insulin | morphological change (PANC-1 cells [3]): did not respond
